According to ChEMBL document CHEMBL4507279, “Data for DCP probe BI-9627” (2021):

Experiments:
[1] = biological target: NUAK family SNF1-like kinase 1 (Homo sapiens) (UniProt O60285); conditions: Compound concentration 1000.0 nM
[2] = biological target: Phosphorylase b kinase regulatory subunit alpha, liver isoform (Homo sapiens) (UniProt P46019); conditions: Compound concentration 1000.0 nM
[3] = biological target: Mitogen-activated protein kinase 6 (Homo sapiens) (UniProt Q16659); conditions: Compound concentration 1000.0 nM
[4] = biological target: Ephrin type-B receptor 2 (Homo sapiens) (UniProt P29323); conditions: Compound concentration 1000.0 nM
[5] = biological target: Serine/threonine-protein kinase SBK1 (Homo sapiens) (UniProt Q52WX2); conditions: Compound concentration 1000.0 nM
[6] = biological target: Activin receptor type-2A (Homo sapiens) (UniProt P27037); conditions: Compound concentration 1000.0 nM
[7] = biological target: Receptor-interacting serine/threonine-protein kinase 2 (Homo sapiens) (UniProt O43353); conditions: Compound concentration 1000.0 nM
[8] = biological target: Mitogen-activated protein kinase 15 (Homo sapiens) (UniProt Q8TD08); conditions: Compound concentration 1000.0 nM
[9] = biological target: Delta-type opioid receptor (Homo sapiens) (UniProt P41143); conditions: Compound concentration 10.0 uM
[10] = biological target: Serine/threonine-protein kinase PLK2 (Homo sapiens) (UniProt Q9NYY3); conditions: Compound concentration 1000.0 nM
[11] = biological target: Interleukin-1 receptor-associated kinase 1 (Homo sapiens) (UniProt P51617); conditions: Compound concentration 1000.0 nM
[12] = tested on: Phosphatidylinositol 4,5-bisphosphate 3-kinase catalytic subunit alpha isoform (Homo sapiens), P42336 [E545K]; conditions: Compound concentration 1000.0 nM
[13] = biological target: Cyclin-dependent kinase 11B (Homo sapiens) (UniProt P21127); conditions: Compound concentration 1000.0 nM
[14] = biological target: Serine/threonine-protein kinase Sgk2 (Homo sapiens) (UniProt Q9HBY8); conditions: Compound concentration 1000.0 nM
[15] = biological target: Misshapen-like kinase 1 (Homo sapiens) (UniProt Q8N4C8); conditions: Compound concentration 1000.0 nM
[16] = biological target: Serine/threonine-protein kinase PAK 2 (Homo sapiens) (UniProt Q13177); conditions: Compound concentration 1000.0 nM
[17] = tested on: Tyrosine-protein kinase ABL1 (Homo sapiens), P00519 [H396P]; conditions: Compound concentration 1000.0 nM
[18] = biological target: Ribosomal protein S6 kinase alpha-5 (Homo sapiens) (UniProt O75582); conditions: Compound concentration 1000.0 nM
[19] = biological target: Mitogen-activated protein kinase 9 (Homo sapiens) (UniProt P45984); conditions: Compound concentration 1000.0 nM
[20] = biological target: Cyclin-dependent kinase-like 1 (Homo sapiens) (UniProt Q00532); conditions: Compound concentration 1000.0 nM
[21] = biological target: LIM domain kinase 1 (Homo sapiens) (UniProt P53667); conditions: Compound concentration 1000.0 nM
[22] = tested on: Leucine-rich repeat serine/threonine-protein kinase 2 (Homo sapiens), Q5S007 [G2019S]; conditions: Compound concentration 1000.0 nM
[23] = biological target: Dual specificity mitogen-activated protein kinase kinase 2 (Homo sapiens) (UniProt P36507); conditions: Compound concentration 1000.0 nM
[24] = biological target: Dual specificity protein kinase CLK1 (Homo sapiens) (UniProt P49759); conditions: Compound concentration 1000.0 nM
[25] = biological target: Mitogen-activated protein kinase kinase kinase 5 (Homo sapiens) (UniProt Q99683); conditions: Compound concentration 1000.0 nM
[26] = biological target: Muscle, skeletal receptor tyrosine-protein kinase (Homo sapiens) (UniProt O15146); conditions: Compound concentration 1000.0 nM
[27] = biological target: Homeodomain-interacting protein kinase 1 (Homo sapiens) (UniProt Q86Z02); conditions: Compound concentration 1000.0 nM
[28] = biological target: Serine/threonine-protein kinase ULK3 (Homo sapiens) (UniProt Q6PHR2); conditions: Compound concentration 1000.0 nM
[29] = biological target: Mitogen-activated protein kinase 4 (Homo sapiens) (UniProt P31152); conditions: Compound concentration 1000.0 nM
[30] = biological target: Calcium/calmodulin-dependent protein kinase type II subunit delta (Homo sapiens) (UniProt Q13557); conditions: Compound concentration 1000.0 nM
[31] = biological target: Calcium/calmodulin-dependent protein kinase type 1 (Homo sapiens) (UniProt Q14012); conditions: Compound concentration 1000.0 nM
[32] = biological target: Cyclin-dependent kinase-like 5 (Homo sapiens) (UniProt O76039); conditions: Compound concentration 1000.0 nM
[33] = biological target: Serine/threonine-protein kinase SIK1 (Homo sapiens) (UniProt P57059); conditions: Compound concentration 1000.0 nM
[34] = biological target: Serine/threonine-protein kinase Nek10 (Homo sapiens) (UniProt Q6ZWH5); conditions: Compound concentration 1000.0 nM
[35] = biological target: Testis-specific serine/threonine-protein kinase 1 (Homo sapiens) (UniProt Q9BXA7); conditions: Compound concentration 1000.0 nM
[36] = biological target: Non-receptor tyrosine-protein kinase TYK2 (Homo sapiens) (UniProt P29597); conditions: Compound concentration 1000.0 nM
[37] = biological target: Dual specificity testis-specific protein kinase 1 (Homo sapiens) (UniProt Q15569); conditions: Compound concentration 1000.0 nM
[38] = biological target: Dual specificity mitogen-activated protein kinase kinase 6 (Homo sapiens) (UniProt P52564); conditions: Compound concentration 1000.0 nM
[39] = biological target: Serine/threonine-protein kinase MARK1 (Homo sapiens) (UniProt Q9P0L2); conditions: Compound concentration 1000.0 nM
[40] = biological target: Leukocyte tyrosine kinase receptor (Homo sapiens) (UniProt P29376); conditions: Compound concentration 1000.0 nM
[41] = biological target: Casein kinase I isoform gamma-3 (Homo sapiens) (UniProt Q9Y6M4); conditions: Compound concentration 1000.0 nM
[42] = biological target: Sodium-dependent serotonin transporter (Homo sapiens) (UniProt P31645); conditions: Compound concentration 10.0 uM
[43] = tested on: Epidermal growth factor receptor (Homo sapiens), P00533 [L858R]; conditions: Compound concentration 1000.0 nM
[44] = biological target: Cytoplasmic tyrosine-protein kinase BMX (Homo sapiens) (UniProt P51813); conditions: Compound concentration 1000.0 nM
[45] = tested on: Epidermal growth factor receptor (Homo sapiens), P00533 [G719C]; conditions: Compound concentration 1000.0 nM

Sequence of Serine/threonine-protein kinase MARK1 (Homo sapiens) (Q9P0L2 whole entry, looked up): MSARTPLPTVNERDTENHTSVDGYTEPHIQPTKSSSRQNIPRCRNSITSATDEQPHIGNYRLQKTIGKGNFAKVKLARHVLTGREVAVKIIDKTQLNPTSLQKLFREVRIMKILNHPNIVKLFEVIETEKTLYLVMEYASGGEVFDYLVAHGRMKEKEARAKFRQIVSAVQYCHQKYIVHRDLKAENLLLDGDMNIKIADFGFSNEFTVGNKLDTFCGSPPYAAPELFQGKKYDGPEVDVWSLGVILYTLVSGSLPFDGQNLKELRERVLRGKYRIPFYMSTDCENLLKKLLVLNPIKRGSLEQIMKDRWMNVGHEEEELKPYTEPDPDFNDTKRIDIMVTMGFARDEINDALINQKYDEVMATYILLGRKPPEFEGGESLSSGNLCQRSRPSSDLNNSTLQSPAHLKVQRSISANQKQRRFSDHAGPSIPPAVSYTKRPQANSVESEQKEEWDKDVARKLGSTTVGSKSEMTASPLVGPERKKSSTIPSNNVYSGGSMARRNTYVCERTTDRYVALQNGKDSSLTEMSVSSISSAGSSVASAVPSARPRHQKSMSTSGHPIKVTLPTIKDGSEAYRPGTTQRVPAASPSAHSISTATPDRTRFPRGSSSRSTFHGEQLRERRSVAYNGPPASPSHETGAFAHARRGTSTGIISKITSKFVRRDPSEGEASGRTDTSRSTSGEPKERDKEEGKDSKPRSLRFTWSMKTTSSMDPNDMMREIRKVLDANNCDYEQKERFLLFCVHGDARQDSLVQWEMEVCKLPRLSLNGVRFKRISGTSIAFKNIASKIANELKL
Sequence of Dual specificity mitogen-activated protein kinase kinase 6 (Homo sapiens) (P52564 whole entry): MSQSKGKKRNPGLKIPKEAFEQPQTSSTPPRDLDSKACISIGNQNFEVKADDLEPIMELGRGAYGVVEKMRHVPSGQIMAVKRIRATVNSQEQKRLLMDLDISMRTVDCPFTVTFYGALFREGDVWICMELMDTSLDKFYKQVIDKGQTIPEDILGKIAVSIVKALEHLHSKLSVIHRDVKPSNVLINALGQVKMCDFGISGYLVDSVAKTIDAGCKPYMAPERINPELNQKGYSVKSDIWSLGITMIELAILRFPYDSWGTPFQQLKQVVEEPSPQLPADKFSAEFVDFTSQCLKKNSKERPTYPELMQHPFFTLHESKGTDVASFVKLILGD
Sequence of Dual specificity mitogen-activated protein kinase kinase 2 (Homo sapiens) (P36507 whole entry): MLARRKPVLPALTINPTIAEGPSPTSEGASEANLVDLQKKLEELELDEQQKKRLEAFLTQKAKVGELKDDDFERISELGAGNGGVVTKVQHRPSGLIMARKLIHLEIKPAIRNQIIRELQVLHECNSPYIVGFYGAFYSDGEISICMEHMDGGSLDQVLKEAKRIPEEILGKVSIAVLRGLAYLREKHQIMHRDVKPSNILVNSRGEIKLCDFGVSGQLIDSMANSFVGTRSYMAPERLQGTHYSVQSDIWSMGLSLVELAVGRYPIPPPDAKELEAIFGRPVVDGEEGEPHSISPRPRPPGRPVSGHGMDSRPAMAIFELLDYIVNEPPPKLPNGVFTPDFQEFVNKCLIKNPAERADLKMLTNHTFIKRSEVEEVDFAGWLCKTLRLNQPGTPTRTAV
Sequence of Mitogen-activated protein kinase 9 (Homo sapiens) (P45984 whole entry, looked up): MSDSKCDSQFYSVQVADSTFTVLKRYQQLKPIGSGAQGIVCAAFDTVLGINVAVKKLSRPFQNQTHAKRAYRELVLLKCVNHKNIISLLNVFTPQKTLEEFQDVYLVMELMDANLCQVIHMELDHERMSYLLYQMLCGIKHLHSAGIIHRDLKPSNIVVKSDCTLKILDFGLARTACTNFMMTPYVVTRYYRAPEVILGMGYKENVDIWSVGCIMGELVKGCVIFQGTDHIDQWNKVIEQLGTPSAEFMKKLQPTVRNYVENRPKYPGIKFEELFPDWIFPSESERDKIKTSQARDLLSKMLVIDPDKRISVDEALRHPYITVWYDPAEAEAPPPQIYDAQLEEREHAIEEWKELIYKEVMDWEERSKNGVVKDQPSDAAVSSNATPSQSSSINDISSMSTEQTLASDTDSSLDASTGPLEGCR
Sequence of Serine/threonine-protein kinase SBK1 (Homo sapiens) (Q52WX2 whole entry): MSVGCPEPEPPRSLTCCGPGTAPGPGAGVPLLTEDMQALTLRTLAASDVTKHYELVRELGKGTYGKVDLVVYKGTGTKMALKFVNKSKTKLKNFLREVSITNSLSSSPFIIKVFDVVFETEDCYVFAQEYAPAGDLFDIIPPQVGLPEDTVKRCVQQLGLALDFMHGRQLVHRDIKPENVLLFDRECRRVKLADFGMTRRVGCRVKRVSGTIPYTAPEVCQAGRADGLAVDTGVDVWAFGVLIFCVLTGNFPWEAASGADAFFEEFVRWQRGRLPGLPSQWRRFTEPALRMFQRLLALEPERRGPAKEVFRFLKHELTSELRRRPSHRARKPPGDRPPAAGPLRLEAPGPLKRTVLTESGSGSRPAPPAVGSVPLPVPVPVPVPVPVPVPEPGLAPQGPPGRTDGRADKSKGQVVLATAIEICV
Sequence of Dual specificity protein kinase CLK1 (Homo sapiens) (P49759 whole entry, looked up): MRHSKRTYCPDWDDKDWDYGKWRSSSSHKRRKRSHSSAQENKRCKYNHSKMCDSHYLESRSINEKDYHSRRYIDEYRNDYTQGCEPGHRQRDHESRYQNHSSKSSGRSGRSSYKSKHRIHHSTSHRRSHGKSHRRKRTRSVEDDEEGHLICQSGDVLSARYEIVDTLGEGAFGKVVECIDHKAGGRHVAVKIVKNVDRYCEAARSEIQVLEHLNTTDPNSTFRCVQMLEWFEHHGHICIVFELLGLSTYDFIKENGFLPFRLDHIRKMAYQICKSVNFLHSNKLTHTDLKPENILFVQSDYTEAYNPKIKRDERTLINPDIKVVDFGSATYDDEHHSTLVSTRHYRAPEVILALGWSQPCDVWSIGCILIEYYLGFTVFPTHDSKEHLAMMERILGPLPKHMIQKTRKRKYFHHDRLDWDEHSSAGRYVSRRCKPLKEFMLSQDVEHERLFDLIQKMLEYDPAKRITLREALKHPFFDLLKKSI
Sequence of Serine/threonine-protein kinase SIK1 (Homo sapiens) (P57059 whole entry): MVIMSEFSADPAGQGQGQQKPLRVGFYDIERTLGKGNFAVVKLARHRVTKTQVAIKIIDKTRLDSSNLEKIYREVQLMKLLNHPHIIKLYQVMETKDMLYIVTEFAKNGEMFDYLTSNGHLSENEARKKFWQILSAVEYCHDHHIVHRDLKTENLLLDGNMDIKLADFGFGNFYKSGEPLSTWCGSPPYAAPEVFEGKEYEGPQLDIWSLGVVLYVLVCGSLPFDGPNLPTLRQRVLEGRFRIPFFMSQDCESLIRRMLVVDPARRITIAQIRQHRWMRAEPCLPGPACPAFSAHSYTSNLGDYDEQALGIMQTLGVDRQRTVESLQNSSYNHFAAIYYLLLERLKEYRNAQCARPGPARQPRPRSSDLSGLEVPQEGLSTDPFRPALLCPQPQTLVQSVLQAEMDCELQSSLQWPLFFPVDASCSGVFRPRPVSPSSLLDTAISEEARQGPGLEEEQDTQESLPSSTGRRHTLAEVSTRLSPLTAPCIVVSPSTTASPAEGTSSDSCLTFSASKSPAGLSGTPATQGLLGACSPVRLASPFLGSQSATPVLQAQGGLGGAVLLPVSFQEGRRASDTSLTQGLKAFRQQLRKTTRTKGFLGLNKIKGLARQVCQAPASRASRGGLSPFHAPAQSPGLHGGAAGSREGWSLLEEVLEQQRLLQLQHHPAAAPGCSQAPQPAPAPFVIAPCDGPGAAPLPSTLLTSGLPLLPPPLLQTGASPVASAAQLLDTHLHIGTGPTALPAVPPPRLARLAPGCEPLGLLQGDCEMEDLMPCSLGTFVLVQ
Sequence of Receptor-interacting serine/threonine-protein kinase 2 (Homo sapiens) (O43353 whole entry): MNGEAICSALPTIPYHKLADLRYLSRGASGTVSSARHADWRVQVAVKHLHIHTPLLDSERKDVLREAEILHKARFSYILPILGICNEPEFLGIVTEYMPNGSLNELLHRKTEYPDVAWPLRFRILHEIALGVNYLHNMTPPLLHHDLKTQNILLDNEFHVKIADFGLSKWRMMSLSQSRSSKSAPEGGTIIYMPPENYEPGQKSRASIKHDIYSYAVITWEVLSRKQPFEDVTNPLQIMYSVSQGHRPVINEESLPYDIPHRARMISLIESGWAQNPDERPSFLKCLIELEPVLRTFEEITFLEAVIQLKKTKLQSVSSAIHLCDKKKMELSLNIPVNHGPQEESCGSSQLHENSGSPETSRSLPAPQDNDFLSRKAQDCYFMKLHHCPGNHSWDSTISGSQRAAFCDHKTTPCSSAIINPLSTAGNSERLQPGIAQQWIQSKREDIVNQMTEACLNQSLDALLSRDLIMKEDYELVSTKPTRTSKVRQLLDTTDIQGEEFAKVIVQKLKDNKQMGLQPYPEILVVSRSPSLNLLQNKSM
Sequence of Serine/threonine-protein kinase PLK2 (Homo sapiens) (Q9NYY3 whole entry, looked up): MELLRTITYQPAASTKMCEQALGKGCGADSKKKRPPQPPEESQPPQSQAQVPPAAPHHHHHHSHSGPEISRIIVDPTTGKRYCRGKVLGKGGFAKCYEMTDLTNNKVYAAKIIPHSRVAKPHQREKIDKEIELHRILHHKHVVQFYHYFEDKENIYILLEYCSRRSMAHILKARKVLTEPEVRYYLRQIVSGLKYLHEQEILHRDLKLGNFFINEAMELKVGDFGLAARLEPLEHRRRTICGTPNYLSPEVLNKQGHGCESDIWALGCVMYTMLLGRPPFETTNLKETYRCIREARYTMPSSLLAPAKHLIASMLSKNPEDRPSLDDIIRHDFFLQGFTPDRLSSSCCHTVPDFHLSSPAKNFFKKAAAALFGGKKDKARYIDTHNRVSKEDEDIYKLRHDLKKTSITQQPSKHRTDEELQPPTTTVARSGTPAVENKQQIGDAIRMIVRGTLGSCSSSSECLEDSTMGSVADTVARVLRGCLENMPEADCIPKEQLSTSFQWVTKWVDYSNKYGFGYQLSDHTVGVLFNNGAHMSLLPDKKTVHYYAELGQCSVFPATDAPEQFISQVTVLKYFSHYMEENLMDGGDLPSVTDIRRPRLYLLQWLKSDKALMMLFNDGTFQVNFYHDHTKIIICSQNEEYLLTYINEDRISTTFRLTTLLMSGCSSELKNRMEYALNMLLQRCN

CC(=O)N1CCC(c2ccc(C(=O)NC3=NCCN3)cc2C(F)(F)F)CC1 [BI 0054]
inactive: residual activity [1] 98% | residual activity [2] 100% | residual activity [3] 100% | residual activity [4] 82% | residual activity [5] 97% | residual activity [6] 100% | residual activity [7] 100% | residual activity [8] 100% | inhibition [9] -0.82% | residual activity [10] 80% | residual activity [11] 78% | residual activity [12] 87% | residual activity [13] 92% | residual activity [14] 100% | residual activity [15] 100% | residual activity [16] 95% | residual activity [17] 100% | residual activity [18] 100% | residual activity [19] 92% | residual activity [20] 100% | residual activity [21] 100% | residual activity [22] 100% | residual activity [23] 100% | residual activity [24] 100% | residual activity [25] 100% | residual activity [26] 90% | residual activity [27] 91% | residual activity [28] 89% | residual activity [29] 87% | residual activity [30] 100% | residual activity [31] 100% | residual activity [32] 79% | residual activity [33] 100% | residual activity [34] 93% | residual activity [35] 100% | residual activity [36] 100% | residual activity [37] 72% | residual activity [38] 100% | residual activity [39] 100% | residual activity [40] 100% | residual activity [41] 100% | inhibition [42] 11.8% | residual activity [43] 100% | residual activity [44] 100% | residual activity [45] 100%

CC(=O)N1CCC(c2ccc(C(=O)NC(=N)N)cc2C(F)(F)F)CC1 [BI 9627]
inactive: residual activity [1] 100% | residual activity [2] 100% | residual activity [3] 100% | residual activity [4] 100% | residual activity [5] 100% | residual activity [6] 100% | residual activity [7] 100% | residual activity [8] 100% | inhibition [9] -5.35% | residual activity [10] 93% | residual activity [11] 100% | residual activity [12] 76% | residual activity [13] 100% | residual activity [14] 100% | residual activity [15] 95% | residual activity [16] 100% | residual activity [17] 60% | residual activity [18] 100% | residual activity [19] 95% | residual activity [20] 100% | residual activity [21] 100% | residual activity [22] 100% | residual activity [23] 96% | residual activity [24] 100% | residual activity [25] 100% | residual activity [26] 100% | residual activity [27] 81% | residual activity [28] 80% | residual activity [29] 100% | residual activity [30] 100% | residual activity [31] 100% | residual activity [32] 82% | residual activity [33] 100% | residual activity [34] 92% | residual activity [35] 100% | residual activity [36] 100% | residual activity [37] 95% | residual activity [38] 100% | residual activity [39] 100% | residual activity [40] 100% | residual activity [41] 100% | inhibition [42] 21.4% | residual activity [43] 100% | residual activity [44] 100% | residual activity [45] 100%
